{"source": "patent US10954300B2", "about": "“Use of pentoxifylline with immune checkpoint-blockade therapies for the treatment of melanoma” (THE TRUSTEES OF COLUMBIA UNIVERSITY IN THE CITY OF NEW YORK, priority 2015, dated 2021)", "key": {"[1]": {"system": "Treg cells", "experiment": "In vitro suppression assay with PTXF-treated Treg cells", "type": "cell-based, mice", "conditions": "vs mock-treated Treg cells"}, "[2]": {"system": "B16F1 melanoma cells", "experiment": "Established B16F1 melanoma, PTXF with or without checkpoint-blockade mAb", "type": "in vivo, C57Bl/6 WT mice", "conditions": "for tumor size / tumor growth (growth curves): PTXF 50 mg/kg and/or anti-PD-1 mAb from D5-D6, vs control", "method": "Pentoxifylline (Sigma) powder was dissolved in PBS1X and sterile filtered prior to each injection. For the early regimen of pentoxifylline treatment, mice were injected intra-peritoneally with 50 mg/kg pentoxifylline diluted in 100 μL PBS1X at days 0, 1, 2, 3, 5, 7, and 9. For the “curative” regimen, mice were treated daily from day 5-6 (when the tumor was visible and palpable) to day 11, following the same methods. IT-603 was reconstituted in DMSO and stored at −80° C. It then was diluted in PBS1X and sterile-filtered prior to each injection. Mice were injected intra-peritoneally with 10 mg/kg […] diluted in 100 μL PBS1X at days 0, 1, 2, 3, 5, 7 and 9.\nAnti-PD-1 antibody (clone RMP1-14, BioXCell®) or isotype control (polyclonal IgG, BioXCell®) is available commercially. The antibodies were aliquoted in sterile PBS1X and stored at −80° C. until use. Mice are injected intra-peritoneally with […] of anti-PD-1 or isotype antibody, diluted in 100 μL sterile PBS1X at days 6, 8 and 10. All injections are performed using a 27.5 gauge needle, following the standard precautions.\n5×10^4 B16F1 or 5×10^5 CT-26 or BRAF^CAPten^−/− cells diluted in sterile PBS1X were injected subcutaneously into the shaved flank of each mouse. For metastasis experiments, 2.5×10^4 B16F10 cells were injected intravenously in the tail vein. […] Anti-PD-1 (RMP1-14), anti-PD-L1 (10F.9G2) and anti-CD8 (YTS.169-4) mAbs were obtained from BioXCell. Rat IgG isotype control was from R&D Systems. […] In FIG. 11A-11G, Balb/c mice harboring CT-26 tumors received a suboptimal dose of 100 μg of anti-PD-1.\nTumor growth was monitored daily."}}, "note": "“Also recorded” adds a separate entry of the source.", "data": [{"smiles": "CC(=O)CCCCn1c(=O)c2c(ncn2C)n(C)c1=O", "note": "[PTXF, 1-(5-oxohexyl)-3,7-dimethylxanthine]", "values": [{"measurement": "suppression of effector T-cell proliferation by PTXF-treated Treg cells", "setting": "[1]", "result": "modest, but significant, reduction"}, {"measurement": "tumor size / tumor growth (growth curves)", "setting": "[2]", "result": "did not change the growth curves; also recorded: did not significantly reduce tumor size"}, {"measurement": "tumor size / tumor growth (growth curves)", "setting": "[2]; listed as pentoxifylline", "result": "did not significantly reduce tumor size"}, {"measurement": "tumor growth, anti-PD-L1 instead of anti-PD-1", "setting": "[2]; PTXF and/or anti-PD-L1 mAb", "result": "did not affect tumor growth"}]}]}
